Reference: ChEMBL document CHEMBL1201862, “PubChem BioAssay data set” (2004)
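Method: 48-hour compound exposure of cells in 96-well plates, five concentrations, linear interpolation of endpoints. At the GI50, growth is halved.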 Activity calls are given as the source filed them. Cut-off read from the data, not from the text of the source: active = GI50 up to about 1.1 µM and inactive = higher.

What was measured:
Assay in all cases: DTP human tumour cell line panel, 48 h
CCRF-CEM = system: CCRF-CEM
OVCAR-8 = system: OVCAR-8
LXFL 529 = system: LXFL 529
IGROV-1 = system: IGROV-1
A498 = system: A498
NCI-H226 = system: NCI-H226
786-0 = system: 786-0
HOP-92 = system: HOP-92
HCT-116 = system: HCT-116
SF-539 = system: SF-539
RXF 393 = system: RXF 393
HL-60 = system: HL-60
NCI-H23 = system: NCI-H23
SF-295 = system: SF-295
SR = system: SR
OVCAR-4 = system: OVCAR-4
SN12C = system: SN12C
SNB-19 = system: SNB-19
A549 = system: A549
OVCAR-3 = system: OVCAR-3
SF-268 = system: SF-268
SNB-75 = system: SNB-75
UO-31 = system: UO-31
HT-29 = system: HT-29
SNB-78 = system: SNB-78
SW-620 = system: SW-620
NCI-H460 = system: NCI-H460
SK-MEL-5 = system: SK-MEL-5
UACC-62 = system: UACC-62
ACHN = system: ACHN
CAKI-1 = system: CAKI-1
TK-10 = system: TK-10
HCT-15 = system: HCT-15
K562 = system: K562
LOX IMVI = system: LOX IMVI
DLD-1 = system: DLD-1
MOLT-4 = system: MOLT-4
SK-MEL-28 = system: SK-MEL-28
SK-OV-3 = system: SK-OV-3
U-251 = system: U-251
DMS-114 = system: DMS-114
HOP-62 = system: HOP-62
EKVX = system: EKVX
HCC 2998 = system: HCC 2998
UACC-257 = system: UACC-257
KM12 = system: KM12
COLO 205 = system: COLO 205
RPMI-8226 = system: RPMI-8226
KM-20L2 = system: KM-20L2
DMS-273 = system: DMS-273
NCI-H522 = system: NCI-H522
SK-MEL-2 = system: SK-MEL-2
M19-MEL = system: M19-MEL
DU-145 = system: DU-145
BT-549 = system: BT-549
Hs-578T = system: Hs-578T
MDA-MB-435 = system: MDA-MB-435
PC-3 = system: PC-3
OVCAR-5 = system: OVCAR-5
Malme-3M = system: Malme-3M
M14 = system: M14
NCI/ADR-RES = system: NCI/ADR-RES
MCF7 = system: MCF7
MDA-MB-231 = system: MDA-MB-231
T47D = system: T47D
MDA-N = system: MDA-N

Compound: CC12C(=CC(=O)CC1SCCS(=O)(=O)O)C(C#N)=C(N)N2c1ccc(Cl)c(Cl)c1 (configuration not stated)
- GI50 (CCRF-CEM): > 100 µM (inactive)
- GI50 (OVCAR-8): > 100 µM (inactive)
- GI50 (LXFL 529): > 100 µM (inactive)
- GI50 (IGROV-1): > 100 µM (inactive)
- GI50 (A498): > 100 µM (inactive)
- GI50 (NCI-H226): > 100 µM (inactive)
- GI50 (786-0): > 100 µM (inactive)
- GI50 (HOP-92): 30.6 µM (inactive)
- GI50 (HCT-116): > 100 µM (inactive)
- GI50 (SF-539): > 100 µM (inactive)
- GI50 (RXF 393): 36.8 µM (inactive)
- GI50 (HL-60): > 100 µM (inactive)
- GI50 (NCI-H23): > 100 µM (inactive)
- GI50 (SF-295): > 100 µM (inactive)
- GI50 (SR): > 100 µM (inactive)
- GI50 (OVCAR-4): > 100 µM (inactive)
- GI50 (SN12C): > 100 µM (inactive)
- GI50 (SNB-19): > 100 µM (inactive)
- GI50 (A549): > 100 µM (inactive)
- GI50 (OVCAR-3): > 100 µM (inactive)
- GI50 (SF-268): > 100 µM (inactive)
- GI50 (SNB-75): > 100 µM (inactive)
- GI50 (UO-31): > 100 µM (inactive)
- GI50 (HT-29): > 100 µM (inactive)
- GI50 (SNB-78): > 100 µM (inactive)
- GI50 (SW-620): 78.9 µM (inactive)
- GI50 (NCI-H460): 10 µM (inactive)
- GI50 (SK-MEL-5): > 100 µM (inactive)
- GI50 (UACC-62): > 100 µM (inactive)
- GI50 (ACHN): > 100 µM (inactive)
- GI50 (CAKI-1): > 100 µM (inactive)
- GI50 (TK-10): > 100 µM (inactive)
- GI50 (HCT-15): > 100 µM
- GI50 (K562): > 100 µM (inactive)
- GI50 (LOX IMVI): > 100 µM (inactive)
- GI50 (DLD-1): > 100 µM (inactive)
- GI50 (MOLT-4): > 100 µM (inactive)
- GI50 (SK-MEL-28): > 100 µM (inactive)
- GI50 (SK-OV-3): > 100 µM (inactive)
- GI50 (U-251): > 100 µM (inactive)
- GI50 (DMS-114): > 100 µM (inactive)
- GI50 (HOP-62): > 100 µM (inactive)
- GI50 (EKVX): > 100 µM (inactive)
- GI50 (HCC 2998): > 100 µM (inactive)
- GI50 (UACC-257): > 100 µM (inactive)
- GI50 (KM12): > 100 µM (inactive)
- GI50 (COLO 205): > 100 µM (inactive)
- GI50 (RPMI-8226): > 100 µM (inactive)
- GI50 (KM-20L2): > 100 µM (inactive)
- GI50 (DMS-273): > 100 µM (inactive)
- GI50 (NCI-H522): 36 µM (inactive)
- GI50 (SK-MEL-2): > 100 µM (inactive)
- GI50 (M19-MEL): > 100 µM (inactive)

Compound: O=C(O)c1ccc(C(=O)c2ccccc2)c(C(=O)O)c1
- GI50 (CCRF-CEM): > 100 µM (inactive)
- GI50 (OVCAR-8): > 100 µM (inactive)
- GI50 (DU-145): > 100 µM (inactive)
- GI50 (IGROV-1): > 100 µM (inactive)
- GI50 (A498): > 100 µM (inactive)
- GI50 (NCI-H226): > 100 µM (inactive)
- GI50 (786-0): > 100 µM (inactive)
- GI50 (HOP-92): > 100 µM (inactive)
- GI50 (HCT-116): > 100 µM (inactive)
- GI50 (SF-539): > 100 µM (inactive)
- GI50 (BT-549): > 100 µM (inactive)
- GI50 (RXF 393): > 100 µM (inactive)
- GI50 (HL-60): > 100 µM (inactive)
- GI50 (NCI-H23): > 100 µM (inactive)
- GI50 (SF-295): > 100 µM (inactive)
- GI50 (Hs-578T): > 100 µM (inactive)
- GI50 (SR): > 100 µM (inactive)
- GI50 (OVCAR-4): > 100 µM (inactive)
- GI50 (SN12C): > 100 µM (inactive)
- GI50 (MDA-MB-435): > 100 µM (inactive)
- GI50 (SNB-19): > 100 µM (inactive)
- GI50 (A549): > 100 µM (inactive)
- GI50 (OVCAR-3): > 100 µM (inactive)
- GI50 (SF-268): > 100 µM (inactive)
- GI50 (PC-3): > 100 µM (inactive)
- GI50 (OVCAR-5): > 100 µM (inactive)
- GI50 (SNB-75): > 100 µM (inactive)
- GI50 (UO-31): > 100 µM (inactive)
- GI50 (HT-29): > 100 µM (inactive)
- GI50 (Malme-3M): > 100 µM (inactive)
- GI50 (SW-620): > 100 µM (inactive)
- GI50 (NCI-H460): > 100 µM (inactive)
- GI50 (SK-MEL-5): > 100 µM (inactive)
- GI50 (M14): > 100 µM (inactive)
- GI50 (UACC-62): > 100 µM (inactive)
- GI50 (ACHN): > 100 µM (inactive)
- GI50 (CAKI-1): > 100 µM (inactive)
- GI50 (TK-10): > 100 µM (inactive)
- GI50 (HCT-15): > 100 µM
- GI50 (K562): > 100 µM (inactive)
- GI50 (NCI/ADR-RES): > 100 µM (inactive)
- GI50 (LOX IMVI): > 100 µM (inactive)
- GI50 (MOLT-4): > 100 µM (inactive)
- GI50 (MCF7): > 100 µM (inactive)
- GI50 (SK-MEL-28): > 100 µM (inactive)
- GI50 (MDA-MB-231): > 100 µM (inactive)
- GI50 (SK-OV-3): > 100 µM (inactive)
- GI50 (U-251): > 100 µM (inactive)
- GI50 (HOP-62): > 100 µM (inactive)
- GI50 (EKVX): > 100 µM (inactive)
- GI50 (HCC 2998): > 100 µM (inactive)
- GI50 (T47D): > 100 µM (inactive)
- GI50 (UACC-257): > 100 µM (inactive)
- GI50 (KM12): > 100 µM (inactive)
- GI50 (COLO 205): > 100 µM (inactive)
- GI50 (RPMI-8226): > 100 µM (inactive)
- GI50 (MDA-N): > 100 µM (inactive)
- GI50 (NCI-H522): > 100 µM (inactive)
- GI50 (SK-MEL-2): > 100 µM (inactive)
